# Experimental data: paper PMC4866688, “Trypanosoma brucei DHFR-TS Revisited: Characterisation of a Bifunctional and Highly Unstable Recombinant Dihydrofolate Reductase-Thymidylate Synthase” (PLoS Neglected Tropical Diseases, 2016)
# “And” between values parts separate entries of the source, which are not always exact repeats. Identical values can stand only once. Like-named read-outs stand apart in the source and are kept apart here.
# Experiments:
# [1] = target: T1, T. brucei TS (Tsf-TbDHFR-TS) (Trypanosoma brucei brucei, UniProt Q27783); assay: Inhibition of TS activity of Tsf-TbDHFR-TS in clarified thyA- E. coli lysate; format: biochemical; settings: for Ki: TS Ki, T. brucei; for Ki / TS Ki, T. brucei: 100 μM CH2THF, 200 μM dUMP, 200 nM Tsf-TbDHFR-TS, Inactive * = no inhibition at 25 μM, ** = no inhibition at 100 μM
# T1 construct: The open reading frame of DHFR-TS was amplified by PCR from T. brucei gDNA using specific oligonucleotides; made in house; host or cells: thyA- E. coli derived from BL21 Star (DE3); unpurified clarified lysate
# Protocol: (§1) The initial characterisation of TS was also carried out using a spectrophotometric assay. […] Enzymatic reactions were initiated by the addition of CH2THF (200 μM, Shircks Laboratories) and initial rates of CH2THF oxidation to DHF monitored by the increase in absorbance at 340 nm (ε = 6,200 M^-1 cm^-1). […] Residual 5-[^3H]-dUMP was removed by the addition of 200 μl of 10% (w/v) activated charcoal (Sigma). Aliquots (100 μl) of the supernatants were added to 2 ml of scintillation fluid (Pico-Fluor 40™, Packard Bioscience) and radioactivity determined using a Beckmann LS 6500 Scintillation Counter. To determine TS activity in clarified T. brucei lysates the incubation time was increased to 30 min and the assay volume was increased to ~200 μl. […] For stability experiments all lysates were desalted using 0.5 ml Zeba Spin Desalting Columns (7K MWCO). Protein concentrations were determined using the BioRad protein assay based on the method of Bradford. Inhibitors (8-point doubling dilutions) were assayed using the radiometric method in the presence of 100 μM CH2THF, 200 μM dUMP and 200 nM Tsf-TbDHFR-TS.
# Target sequence in this assay (Q27783 whole entry): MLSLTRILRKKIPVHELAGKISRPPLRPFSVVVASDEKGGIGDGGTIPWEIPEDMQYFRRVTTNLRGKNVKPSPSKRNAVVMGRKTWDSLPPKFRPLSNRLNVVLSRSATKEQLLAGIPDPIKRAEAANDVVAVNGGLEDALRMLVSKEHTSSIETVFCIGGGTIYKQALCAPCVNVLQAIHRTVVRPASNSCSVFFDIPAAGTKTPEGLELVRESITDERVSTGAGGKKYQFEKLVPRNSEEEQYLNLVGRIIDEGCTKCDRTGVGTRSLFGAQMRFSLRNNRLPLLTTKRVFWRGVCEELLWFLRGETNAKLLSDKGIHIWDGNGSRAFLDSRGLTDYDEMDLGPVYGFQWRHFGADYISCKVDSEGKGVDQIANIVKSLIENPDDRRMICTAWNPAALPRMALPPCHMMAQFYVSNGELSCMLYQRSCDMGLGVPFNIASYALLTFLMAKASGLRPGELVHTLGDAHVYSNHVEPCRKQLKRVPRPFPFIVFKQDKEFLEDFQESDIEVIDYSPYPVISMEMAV
# Target sequence in this assay (P0A6P1 whole entry, further chain): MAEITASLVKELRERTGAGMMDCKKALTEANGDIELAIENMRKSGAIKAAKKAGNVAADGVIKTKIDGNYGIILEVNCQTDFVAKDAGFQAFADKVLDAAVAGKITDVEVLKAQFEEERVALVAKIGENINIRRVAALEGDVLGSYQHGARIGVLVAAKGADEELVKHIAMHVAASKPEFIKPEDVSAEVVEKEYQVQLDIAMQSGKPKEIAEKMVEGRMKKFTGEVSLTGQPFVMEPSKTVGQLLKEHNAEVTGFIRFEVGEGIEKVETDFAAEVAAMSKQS
# [2] = target: T1, T. brucei TS (Tsf-TbDHFR-TS); assay: Kinetic analysis of TS activity (substrates); format: biochemical; settings: clarified E. coli lysate, radiometric assay; read-out: CH2THF Km^app
# Protocol: The initial characterisation of TS was also carried out using a spectrophotometric assay. Owing to the pronounced instability of the recombinant protein, clarified ThyA^- E. coli lysates were used for characterisation, where the concentration of TS was calculated based on DHFR activity. […] . Enzymatic reactions were initiated by the addition of CH2THF (200 μM, Shircks Laboratories) and initial rates of CH2THF oxidation to DHF monitored by the increase in absorbance at 340 nm (ε = 6,200 M^-1 cm^-1). This method is not suitable for determination of the Km^app for CH2THF and a radiometric method was used instead. This method measures the release of tritiated water from 5-[^3H]-dUMP (American Radiochemicals, 14.3 Ci mmol^-1). Assays (40 μl final volume) contained 200 nM TS and varying amounts of CH2THF (37.5 μM– 4.8 mM) in DHFR-assay buffer. Reactions were initiated by adding 200 μM [^3H]-dUMP (5.55 × 10^5 dpm nmol^-1) and stopped after 10 min by the addition of 20 μl trichloroacetic acid. Residual 5-[^3H]-dUMP was removed by the addition of 200 μl of 10% (w/v) activated charcoal (Sigma). Aliquots (100 μl) of the supernatants were added to 2 ml of scintillation fluid (Pico-Fluor 40™, Packard Bioscience) and radioactivity determined using a Beckmann LS 6500 Scintillation Counter. […] Protein concentrations were determined using the BioRad protein assay based on the method of Bradford. […]
# Target sequence in this assay (Q27783 whole entry): as the sequence (Q27783 whole entry) above
# Target sequence in this assay (P0A6P1 whole entry partner): as the sequence (P0A6P1 whole entry, further chain) above
# [3] = target: T2, T. brucei DHFR (Tsf-TbDHFR-TS) (Trypanosoma brucei brucei, UniProt Q27783); assay: Kinetic analysis of DHFR activity (substrates); format: biochemical; design: The open reading frame of DHFR-TS was amplified by PCR from T. brucei gDNA using specific oligonucleotides; made in house; host or cells: thyA- E. coli derived from BL21 Star (DE3); settings: for Activity as substrate for T. brucei DHFR: <17,000-fold (folate) and <2,300-fold (pterins) compared to DHF as substrate
# [4] = target: Human TS; settings: cited from earlier work
# [5] = target: T2, T. brucei DHFR (Tsf-TbDHFR-TS); assay: Inhibition of DHFR activity of recombinant Tsf-TbDHFR-TS (spectrophotometric, 340 nm); settings: for Modality of inhibition of DHFR: with respect to DHF
# Protocol: DHFR activity was determined spectrophotometrically at 340 nm [18]. DHFR (5 nM) was pre-incubated with 100 μM NADPH (Medford) in assay buffer (50 mM HEPES, pH 7.4, containing 100 mM KCl) for 1 min at 25°C (1 ml final assay volume), before the addition of 100 μM DHF (Sigma Aldrich). […] The Km^app values for DHFR substrates were determined by varying the concentration of one substrate in the presence of a fixed saturating concentration of the other. IC50 values were determined using 8-point doubling dilutions of inhibitor under the above standard assay conditions.
# Results were analysed by non-linear regression using GraFit v 5.0.13 (Erithacus Software). Km^app values were determined using the Michaelis-Menten equation. IC50 values were determined using eq 1 and Ki values calculated using the Cheng-Prusoff eq 2 [23].
# [6] = tested on: T. brucei bloodstream-form 'single marker' S427; assay: Growth inhibition of wild type T. brucei, 72 h, resazurin-based assay; format: cell-based; settings: Trypanosoma brucei
# Protocol: Wild type (WT) T. brucei bloodstream-form ‘single marker’ S427 were cultured in HMI9T medium supplemented with 2.5 μg ml^-1 G418 to maintain expression of T7 RNA polymerase and the tetracycline repressor protein [27]. HMI9T medium (standard media for T. brucei cell culture) contains high concentrations of folate (~9 μM) and thymidine (~160 μM) principally from IMDM and 10% Serum Plus components. A medium based on HMI9T, only lacking Serum Plus, folate and thymidine was prepared in-house, named trypanosome base media (TBM; the residual folate is provided by the serum component). A comparison of these media is described in S2 Table. WT T. brucei cells grow normally in TBM and the rate of growth is similar to HMI9T in TBM with no supplementation, supplementation with 9 μM folate, 160 μM thymidine or supplementation with both folate and thymidine (7–8 h doubling time).
# EC50 of antifolates against T. brucei were determined in 96-well microtitre plates. Serial doubling dilutions of antifolate drugs (10–50 mM stocks prepared in DMSO) were prepared in 100 μl of the appropriate medium and trypanosomes (resuspended in the same medium) added in 100 μl to give a final concentration of 2.5 × 10^3 cells ml^-1. All wells, including controls, contained a final volume of 0.5% DMSO. Cultures were incubated for 72 h at 37°C / 5% CO2 before cell density was determined using a resazurin-based assay. EC50 values were calculated using GraFit v 5.0.13 (Erithacus Software) with a 3-parameter non-linear regression from triplicate readings. Antifolates were tested against parasites cultured in TBM; this allowed for the addition of thymidine (160 μM) and folate (9 μM) respectively.
# [7] = tested on: Human DHFR; settings: cited from earlier work
# [8] = target: T1, T. brucei TS (Tsf-TbDHFR-TS); assay: Stabilisation of recombinant T. brucei TS activity in desalted, diluted lysate; format: biochemical
# Protocol: as §1
# Target sequence in this assay (Q27783 whole entry): as the sequence (Q27783 whole entry) above
# Target sequence in this assay (P0A6P1 whole entry partner): as the sequence (P0A6P1 whole entry, further chain) above
# [9] = TBM (folate and thymidine deficient), read-out: EC50, No addition
# [10] = TBM + folate (9 μM), read-out: EC50, + Folate
# [11] = TBM + thymidine (160 μM) + folate (9 μM), read-out: EC50, + Thymidine + Folate
# [12] = TBM + thymidine (160 μM), read-out: EC50, + Thymidine
# [13] = DHFR Ki, T. brucei, recombinant TbDHFR-TS, from IC50 (Cheng-Prusoff) or Morrison equation for tight binders, Inactive ** = no inhibition at 100 μM
# [14] = DHFR Ki (competitive inhibition, global fit, Fig 5), varying DHF, fixed amounts of inhibitor, non-linear regression
# T2 sequence (Q27783 whole entry): as the sequence (Q27783 whole entry) above
molecule,measurement,setting,value
OCCS [2-mercaptoethanol],EC50,"[1]; reducing agent at higher concentrations, clarified lysate",~100000 µM
"Nc1nc2c(c(=O)[nH]1)N1CN(c3ccc(C(=O)N[C@@H](CCC(=O)O)C(=O)O)cc3)CC1CN2 (stereo partly drawn) [CH2THF, N^5, N^10-methylenetetrahydrofolate]",Km,[2],470 ± 50 µM
"Nc1nc(=O)c2c([nH]1)NCC(CNc1ccc(C(=O)N[C@@H](CCC(=O)O)C(=O)O)cc1)=N2 [DHF, dihydrofolate]",Km,"[3]; Tsf-TbDHFR-TS, purified, 50 mM HEPES pH 7.4, 100 mM KCl, read-out: DHF Km^app",4.1 ± 0.6 µM
same,Km,"[3]; Tsf-cleaved TbDHFR-TS, read-out: DHF Km^app",4.2 ± 0.5 µM
same,Km,"[3]; purified enzyme, read-out: DHFR Km^app (Fig 4 legend)",4.1 ± 0.6 µM
"O=c1[nH]c(=O)n([C@H]2C[C@H](O)[C@@H](COP(=O)(O)O)O2)cc1F [FdUMP, 5-fluorodeoxyuridine monophosphate]",Ki,[1],0.014 µM and 0.0138 µM
same,Modality of inhibition of TS,[1]; dUMP-competitive,tight-binding inhibition
same,Ki,[4]; ref Dolnick and Cheng [32],0.0017 µM
same,"DHFR Ki, T. brucei","[5]; recombinant TbDHFR-TS, from IC50 (Cheng-Prusoff) or Morrison equation for tight binders, Inactive ** = no inhibition at 100 μM",Inactive ^**
Nc1nc(=O)c2nc(CNc3ccc(C(=O)N[C@@H](CCC(=O)O)C(=O)O)cc3)cnc2[nH]1 [Folic acid],Activity as substrate for T. brucei DHFR,[3],inactive
"CN(Cc1cnc2nc(N)nc(N)c2n1)c1ccc(C(=O)N[C@@H](CCC(=O)O)C(=O)O)cc1 [Methotrexate, methotrexate]",EC50,[6]; [9],0.012 ± 0.001 µM
same,EC50,[6]; [10],1.31 ± 0.13 µM
same,EC50,[6]; [11],8.16 ± 2.78 µM
same,EC50,[6]; [12],0.12 ± 0.03 µM
same,Modality of inhibition of DHFR,[5],tight-binding inhibitors
NC(=O)C1=CN([C@@H]2O[C@H](COP(=O)(O)OP(=O)(O)OC[C@H]3O[C@@H](n4cnc5c(N)ncnc54)[C@H](OP(=O)(O)O)[C@@H]3O)[C@@H](O)[C@H]2O)C=CC1 [NADPH],Km,"[3]; Tsf-TbDHFR-TS, purified, read-out: NADPH Km^app",1.7 ± 0.2 µM
"Cc1ccc2nc(N)[nH]c(=O)c2c1Sc1ccncc1 [Nolatrexed, nolatrexed]",Ki,[1],0.039 µM and 0.0394 µM
same,EC50,"[6]; read-out: EC50, + Folate",21.8 ± 2 µM
same,EC50,"[6]; read-out: EC50, + Thymidine",32.7 ± 4.7 µM
same,EC50,"[6]; read-out: EC50, + Thymidine + Folate",39.6 ± 7.2 µM
same,EC50,"[6]; read-out: EC50, No addition",33.8 ± 3.7 µM
same,"DHFR Ki, Human",[7]; ref Webber et al. [10],Inactive^h
same,Ki,[5]; [13],0.348 ± 0.03 µM
"Nc1nc2[nH]cc(CCc3ccc(C(=O)N[C@@H](CCC(=O)O)C(=O)O)cc3)c2c(=O)[nH]1 [Pemetrexed, pemetrexed]",Ki,[1],20.5 µM
same,EC50,[6]; [9],0.02 ± 0.001 µM
same,EC50,[6]; [10],12.9 ± 1.1 µM
same,EC50,[6]; [11],> 250 µM
same,EC50,[6]; [12],> 250 µM
same,Ki,[7]; ref Shih et al. [11],0.007 µM
same,Ki,[5]; [13],0.29 ± 0.02 µM
"CCc1nc(N)nc(N)c1-c1ccc(Cl)cc1 [Pyrimethamine, pyrimethamine]","TS Ki, T. brucei",[1],Inactive ^**
same,EC50,[6]; [9],2.26 ± 0.32 µM
same,EC50,[6]; [10],6.32 ± 0.71 µM
same,EC50,[6]; [11],6.87 ± 0.33 µM
same,EC50,[6]; [12],2.01 ± 0.34 µM
same,Modality of inhibition of DHFR,[5],competitive inhibitors
"Cc1nc2ccc(CN(C)c3ccc(C(=O)N[C@@H](CCC(=O)O)C(=O)O)s3)cc2c(=O)[nH]1 [Raltitrexed, raltitrexed]",Ki,[1],0.215 ± 0.018 µM
same,EC50,[6]; [9],0.038 ± 0.001 µM
same,EC50,[6]; [10],64.8 ± 4.3 µM
same,EC50,[6]; [11],> 250 µM
same,EC50,[6]; [12],> 250 µM
same,Ki,[7]; ref Jackman et al. [12],0.093 µM
same,Ki,[4]; ref Jackman et al. [12],0.06 µM
same,Ki,[5]; [14],0.0704 ± 0.0072 µM
same,Ki,[5]; [13],0.0931 ± 0.0079 µM
same,Modality of inhibition of DHFR,[5],competitive inhibitors
"COc1cc(Cc2cnc(N)nc2N)cc(OC)c1OC [Trimethoprim, trimethoprim]",EC50,[6]; [9],48.8 ± 3.7 µM
same,EC50,[6]; [10],170 ± 28 µM
same,EC50,[6]; [11],145 ± 22 µM
same,EC50,[6]; [12],59.8 ± 8.6 µM
same,Ki,[5]; [14],0.0114 ± 0.0012 µM
same,Ki,[5]; [13],0.0176 ± 0.0015 µM
same,Modality of inhibition of DHFR,[5],competitive inhibitors
"COc1cc(NCc2ccc3nc(N)nc(N)c3c2C)cc(OC)c1OC [Trimetrexate, trimetrexate]","TS Ki, T. brucei",[1],Inactive ^*
same,EC50,[6]; [9],0.32 ± 0.02 µM
same,EC50,[6]; [10],1.23 ± 0.06 µM
same,EC50,[6]; [11],4.09 ± 0.35 µM
same,EC50,[6]; [12],2.82 ± 0.36 µM
same,Ki,[5]; [13],0.0006 µM and 0.000597 µM
same,Modality of inhibition of DHFR,[5],tight-binding inhibitors
"O=c1ccn([C@H]2C[C@H](O)[C@@H](COP(=O)(O)O)O2)c(=O)[nH]1 [dUMP, deoxyuridine monophosphate]",Increase in stability of TS activity,[8]; 200 μM dUMP vs no dUMP,700 fold
same,EC50,"[8]; absence of CH2THF, diluted lysate incubated 10 min, read-out: Half maximal concentration required to stabilise TS activity",12.6 ± 2.5 µM
C[C@H](O)[C@H](O)C1=Nc2c(nc(N)[nH]c2=O)NC1 [dihydrobiopterin],Activity as substrate for T. brucei DHFR,[3],inactive
Nc1nc2ncc([C@H](O)[C@H](O)CO)nc2c(=O)[nH]1 [neopterin],Activity as substrate for T. brucei DHFR,[3],inactive
C[C@H](O)C(=O)C1=Nc2c(nc(N)[nH]c2=O)NC1 [sepiapterin],Activity as substrate for T. brucei DHFR,[3],inactive
biopterin,Activity as substrate for T. brucei DHFR,[3],inactive
